We go through five compounds from patent publication US8466157B2, “Proteasome inhibitors having chymotrypsin-like activity” (University of South Florida, priority 2009, dated 2013).

Molecules are shown by their SMILES. Values joined by “and” are separate entries in the source; they are usually repeats but may differ in a detail not shown here. Equal entries are not always repeated. Where two headings read alike, the source gives them in different places.

The target in experiment [1] is T1, chymotrypsin-like activity of the purified rabbit 20S proteasome (Oryctolagus cuniculus, UniProt G1T4Q9).
T1 sequence (G1T4Q9 1-263): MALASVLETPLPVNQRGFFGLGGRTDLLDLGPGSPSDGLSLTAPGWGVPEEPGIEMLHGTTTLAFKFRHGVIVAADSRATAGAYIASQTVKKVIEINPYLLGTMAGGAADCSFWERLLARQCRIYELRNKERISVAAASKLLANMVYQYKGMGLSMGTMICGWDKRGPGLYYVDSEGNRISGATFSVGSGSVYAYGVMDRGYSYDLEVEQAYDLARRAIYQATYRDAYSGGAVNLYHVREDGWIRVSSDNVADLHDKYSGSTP
The experiment is described as follows: 20S proteasome inhibition assay, fluorogenic substrate Suc-Leu-Leu-Val-Tyr-AMC.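 On all read-outs here: enzyme and 20 µM substrate incubated 1 h at 37 °C in Tris-HCl buffer pH 7.6, fluorogenic read-out, inhibition calculated against vehicle control.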 The experiment is classed as biochemical. The note with it: for proteasome inhibitory activity, SAR statement in words: chymotrypsin-like activity, compared with lead or analogue.
Method: 20S Proteasome Inhibition Assay
In our work, we used chymotrypsin-like substrate Suc-Leu-Leu-Val-Tyr-AMC to test the proteasome inhibition activity of the synthesized compounds.
The assay was conducted by using a fluorogenic peptide as substrate to test synthesized compounds for inhibitory activity against the chymotrypsin-like activity of the purified rabbit 20S proteasome. Briefly, 70 ng of purified 20S proteasome was incubated with 20 μM Suc-Leu-Leu-Val-Tyr-AMC for 1 hour at 37° C. in 100 μl of assay buffer (50 mM Tris-HCl, pH 7.6) with or without inhibitors. […] The inhibitory activity of the compounds was calculated based on vehicle control.

Experiment [2] has as its target T2, CT-L (Homo sapiens, UniProt P28074).
T2 construct: endogenous in cells
T2 sequence (P28074 60-263): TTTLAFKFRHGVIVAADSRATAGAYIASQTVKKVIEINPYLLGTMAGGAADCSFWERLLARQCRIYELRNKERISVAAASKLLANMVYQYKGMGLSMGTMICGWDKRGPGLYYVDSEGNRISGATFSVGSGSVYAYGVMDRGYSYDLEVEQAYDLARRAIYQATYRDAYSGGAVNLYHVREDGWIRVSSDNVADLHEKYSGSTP
The experiment is described as follows: Inhibition of CT-L in cell culture. The experiment is classed as cell-based.

The test system of experiment [3] is human tumor cell lines (breast, pancreatic and ovarian). The experiment in a line: Selective inhibition of human tumor cell lines over normal cells. The note with it: three human tumor cell lines (breast, pancreatic, ovarian) over normal cells. The experiment is classed as cell-based.
Where [4] appears, read: 30 μM, runs M-1096, M-1098, M-1099.
Setting [5] is: individual determinations (runs M-1096, M-1098, M-1099, AK or dated), read-out: Chymotrypsin-like Activity IC50.
The mark [6] stands for this setting: mean of the individual determinations, read-out: Chymotrypsin-like Activity IC50 (μM), mean ± spread (n).
Where [7] appears, read: read-out: IC50 (μM)* In Cell culture against CT-L.

As to `O=C1C(Cl)=C(Nc2ccc(S(=O)(=O)Nc3ccccn3)cc2)C(=O)c2ccccc21` [PI-083, reference compound], the “Chymotrypsin-like Activity Inhibition at 30 μM” value in experiment [1] (setting [4]) was 86% and 83%. The same compound had an inhibition at 30 µM in experiment [1] (setting [4]) of 87%. Moreover, the IC50 in experiment [1] (setting [5]) was 2.1 µM and 1.4 µM and 2.5 µM and 0.9 µM; in experiment [1] (setting [6]), 1.73 µM; in experiment [2] (setting [7]), 4.3 µM and 3.7 µM. For the same compound, in experiment [3], the “selective inhibition of tumor cell lines over normal cells” value is reported as “selective inhibition”.

In the case of `O=C(O)CSc1cc(NS(=O)(=O)c2cccs2)c2ccccc2c1O` [HLM008182, 2-(1-hydroxy-4-(thiophene-2-sulfonamido)naphthalen-2-ylthio)acetic acid], in experiment [1], the “proteasome inhibitory activity, SAR statement in words” value (shortened to “proteasome inhibitory activity”) is given as “comparable proteasome inhibition activity”. Moreover, the concentration for half-maximal inhibition (IC50) in experiment [1] (setting [6]) is 2.2 µM; in experiment [1] (sample kept r.t. 2 weeks in DMSO, read-out: Chymotrypsin-like Activity IC50 (μM), r.t. 2 weeks in DMSO (converted)) it was 2.76 µM and 1.64 µM; in experiment [2] (listed as YG1-066, read-out: IC50 (μM)* In Cell culture against CT-L) it was 7.3 µM; in experiment [2] (setting [7]), 8.9 µM.

On to `O=C(O)CSC1=CC(=NS(=O)(=O)c2cccs2)c2ccccc2C1=O` (stereo in doubt) [YG2-176, (Z)-2-(1-oxo-4-(thiophen-2-ylsulfonylimino)-1,4-dihydronaphthalen-2-ylthio)acetic acid], for which, in experiment [1], the “proteasome inhibitory activity” value is “comparable inhibitory potency”. The IC50 in experiment [1] (setting [5]) is 2.28 µM and 2.12 µM and 2.4 µM; in experiment [1] (setting [6]) it was 2.27 µM; in experiment [2] (setting [7]), 8.9 µM and 6.9 µM.

Regarding `Cn1nnnc1Sc1cc(NS(=O)(=O)c2cccs2)c2ccccc2c1O` [YG1-159-1, N-(4-hydroxy-3-(1-methyl-1H-tetrazol-5-ylthio)naphthalen-1-yl)thiophene-2-sulfonamide], in experiment [1], the “proteasome inhibitory activity” value is reported as “comparable inhibition potency”. In addition, the IC50 in experiment [1] (setting [5]) was 2.11 µM and 6.45 µM and 6.6 µM and 6.55 µM and 1.54 µM and 2.18 µM; in experiment [2] (setting [7]), 6.4 µM.

For `O=S(=O)(Nc1cc(Sc2ncn[nH]2)c(O)c2ccccc12)c1cccs1` [YG1-159-2, N-(3-(1H-1,2,4-triazol-5-ylthio)-4-hydroxynaphthalen-1-yl)thiophene-2-sulfonamide], in experiment [1], the “proteasome inhibitory activity” value is listed as “comparable inhibition potency”. Besides, the half-inhibitory concentration (IC50) was 1.4 µM and 6.55 µM and 7.4 µM and 5.6 µM and 6.6 µM and 0.85 µM and 1.12 µM in experiment [1] (setting [5]); 4.22 µM in experiment [1] (setting [6]); 4.8 µM and 5.1 µM in experiment [2] (setting [7]).
